Here are results for 17 compounds from the SangsterLogP compilation.

A short description of one data set: method code SF-AS, from DOI: 10.1021/jm00226a007, PMID: 817022. Particulars: pH 7.4.
Regarding `CCCc1cc(C(=O)NN)ccn1`, the logD worked out at 0.63.

`CC(=O)NCc1cc(C(=O)NN)ccn1`: the logD is -1.58.

In turn, `NNC(=O)c1ccnc(Br)c1` had a logD of 0.25.

In turn, `NNC(=O)c1ccnc(I)c1` registered a logD of 0.52.

With `NNC(=O)c1ccnc(F)c1`, the logD was -0.11.

Compound `NNC(=O)c1ccnc(Cl)c1` came in with a logD of 0.11.

On to `CCOc1cc(C(=O)NN)ccn1`, for which the logD was 0.48.

Take `CCc1cc(C(=O)NN)ccn1`: the logD came to 0.12.

`NNC(=O)c1ccnc(Cc2ccccc2)c1` returned a logD of 1.01.

As for `CC(C)Cc1cc(C(=O)NN)ccn1`, the logD is 1.02.

In turn, `NNC(=O)c1ccnc([N+](=O)[O-])c1` displayed a log distribution coefficient (logD) of -0.76.

`NNC(=O)c1ccnc(-c2ccccc2)c1` registered a logD of 1.36.

In turn, `NNC(=O)c1ccnc(N)c1` came in with a logD of -0.98.

The compound `Cc1cc(C(=O)NN)ccn1` came in with a logD of -0.37.

In turn, `CCN(CC)c1cc(C(=O)NN)ccn1` gave a logD of 1.12.

Regarding `CC(=O)Nc1cc(C(=O)NN)ccn1`, the logD is -1.25.

The nature of the next data set: method code SF, from DOI: 10.1021/jm00226a007, PMID: 817022. Particulars: pH 7.4.
Compound `COc1cc(C(=O)NN)ccn1` registered a logD of -0.1.
